Patent US11795177B2, “Substituted quinoline analogs as aldehyde dehydrogenase 1A1 (ALDH1A1) inhibitors” (THE UNITED STATES OF AMERICA, AS REPRESENTED BY THE …, priority 2017, dated 2023)
Structures can show the parent of a compound that is named as a salt.

Key:
[1] = biological target: T1, ALDH1A1 enzyme (Homo sapiens, UniProt P00352); test: ALDH1A1 enzymatic assay (in vitro); type: biochemical; conditions: ALDH1A1 enzyme 20 nM, NAD+ 1 mM, propionaldehyde 80 μM; read-out: ALDH1A1 IC50
T1 sequence (P00352 1-501): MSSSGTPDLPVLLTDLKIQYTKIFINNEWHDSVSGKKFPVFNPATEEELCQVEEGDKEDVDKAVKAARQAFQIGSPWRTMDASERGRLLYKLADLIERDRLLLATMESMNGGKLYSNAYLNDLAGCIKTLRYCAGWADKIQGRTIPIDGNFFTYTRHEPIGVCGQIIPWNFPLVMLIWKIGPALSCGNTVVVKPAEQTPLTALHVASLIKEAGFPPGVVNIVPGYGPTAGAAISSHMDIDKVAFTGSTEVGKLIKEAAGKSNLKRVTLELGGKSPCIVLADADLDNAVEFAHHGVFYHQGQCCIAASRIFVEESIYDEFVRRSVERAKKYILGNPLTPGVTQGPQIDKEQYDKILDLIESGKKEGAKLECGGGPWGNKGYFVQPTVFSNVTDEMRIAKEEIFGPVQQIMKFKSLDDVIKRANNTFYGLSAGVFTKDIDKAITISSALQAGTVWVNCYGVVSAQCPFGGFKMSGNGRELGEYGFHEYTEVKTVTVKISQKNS
Method in brief: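 ALDH1A1 (20 nM final) in 100 mM HEPES pH 7.5, 0.01% Tween 20 was preincubated 15 min at RT with compound (968 pM–57.2 μM final), then started with 1 mM NAD+ and 80 μM propionaldehyde. NADH fluorescence (ex 340/em 450 nm) followed kinetically for 10 min; change normalized to no-inhibitor and no-enzyme controls for percent inhibition and curve fitting.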

[2] = system: MIA PaCa-2 cells; test: MIA PaCa2 cell-based assay (1,536-well high-content imaging ALDEFLUOR assay); parameters: species or system human; conditions: Homo sapiens, 0.5 h, ALDEFLUOR BAAA substrate 500 nM, 30 minutes
Method in brief: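 MIA PaCa-2 cells (1,000/well), plated overnight, given BAAA substrate (500 nM) plus Hoechst 33342 (0.5 nM), then compound (16-point, 1.4 nM–47.8 μM final; 0.5% DMSO). After 30 min at 37° C, ALDH activity imaged by high-content microscopy as BAA-retaining (FITC) cells versus Hoechst-stained nuclei.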

IC50 [1]	IC50 [2]	Compound
< 0.5 µM	0.5 to 1 µM	O=C(C1CC1)C1CCN(C(=O)c2cnc3c(F)cc(F)cc3c2N2CCC3(CC2)OCCO3)CC1 [Example 192, (4-(cyclopropanecarbonyl)piperidin-1-yl)(6,8-difluoro-4-(1,4-dioxa-8-azaspiro[4.5]decan-8-yl)quinolin-3-yl)methanone]
< 0.5 µM	1 to 10 µM	N#CC1(c2ccc(-c3c(C(=O)N4CCC(O)(C5CC5)CC4)cnc4ccc(F)cc34)cc2)CC1 [Cpd. 353, 1-(4-(3-(4-cyclopropyl-4-hydroxypiperidine-1-carbonyl)-6-fluoroquinolin-4-yl)phenyl)cyclopropane-1-carbonitrile]
< 0.5 µM	1 to 10 µM	CC1(C#N)CCN(c2c(C(=O)N3CCN(C(=O)C4CC4)CC3)cnc3cc(F)c(F)cc23)CC1 [Example 126, 1-(3-(4-(cyclopropanecarbonyl)piperazine-1-carbonyl)-6,7-difluoroquinolin-4-yl)-4-methylpiperidine-4-carbonitrile]
< 0.5 µM	< 0.5 µM	N#CC1(c2ccc(-c3c(C(=O)N[C@H]4CC[C@H](O)CC4)cnc4ccc(F)cc34)cc2)CC1 [Cpd. 338, 4-(4-(1-cyanocyclopropyl)phenyl)-6-fluoro-N-((1R,4R)-4-hydroxycyclohexyl)quinoline-3-carboxamide]
< 0.5 µM	1 to 10 µM	CCNC(=O)N1CCN(C(=O)c2cnc3cc(OC)ccc3c2N2CCC3(CC2)OCCO3)CC1 [Example 139, N-ethyl-4-(7-methoxy-4-(1,4-dioxa-8-azaspiro[4.5]decan-8-yl)quinoline-3-carbonyl)piperazine-1-carboxamide]
1 to 10 µM	> 10 µM	C[C@@H]1CN(S(C)(=O)=O)CCN1C(=O)c1cnc2ccc(F)cc2c1N1CCC(C)(C#N)CC1 [Example 241, (R)-1-(6-fluoro-3-(2-methyl-4-(methylsulfonyl)piperazine-1-carbonyl)quinolin-4-yl)-4-methylpiperidine-4-carbonitrile]
0.5 to 1 µM	> 10 µM	CCOC(=O)N1CCN(C(=O)c2cnc3ccccc3c2N2CCC(C)(C#N)CC2)CC1 [Example 100, Ethyl 4-(4-(4-cyano-4-methylpiperidin-1-yl)quinoline-3-carbonyl)piperazine-1-carboxylate]
< 0.5 µM	< 0.5 µM	N#CC1(c2ccccc2)CCN(c2c(C(=O)Nc3cnn(CC(=O)NC4CC4)c3)cnc3ccc(F)cc23)CC1 [Cpd. 347, 4-(4-cyano-4-phenylpiperidin-1-yl)-N-(1-(2-(cyclopropylamino)-2-oxoethyl)-1H-pyrazol-4-yl)-6-fluoroquinoline-3-carboxamide]
< 0.5 µM	> 10 µM	CC(C)C(=O)N1CCN(C(=O)c2cnc3ccc(F)cc3c2N2CCC3(CC2)OCCO3)CC1 [Example 49, 1-(4-(6-fluoro-4-(1,4-dioxa-8-azaspiro[4.5]decan-8-yl)quinoline-3-carbonyl)piperazin-1-yl)-2-methylpropan-1-one]
< 0.5 µM	< 0.5 µM	CN(C)S(=O)(=O)N1CCN(C(=O)c2cnc3ccc(F)cc3c2-c2ccc(C(C)(C)C#N)cc2)CC1 [Example 261, 4-(4-(4-(2-cyanopropan-2-yl)phenyl)-6-fluoroquinoline-3-carbonyl)-N,N-dimethylpiperazine-1-sulfonamide]
< 0.5 µM	< 0.5 µM	Cc1ccc(C2(C#N)CCN(c3c(C(=O)N4CCN(C(=O)C5CC5)CC4)cnc4ccc(F)cc34)CC2)c(F)c1 [Example 290, 1-(3-(4-(cyclopropanecarbonyl)piperazine-1-carbonyl)-6-fluoroquinolin-4-yl)-4-(2-fluoro-4-methylphenyl)piperidine-4-carbonitrile]
> 10 µM	> 10 µM	COc1ccc2ncc(C(=O)N3CCN(C(=O)C4CC4)CC3)c(N3CCS(=O)(=O)CC3)c2c1 [Example 29, (4-(cyclopropanecarbonyl)piperazin-1-yl)(4-(1,1-dioxidothiomorpholino)-6-methoxyquinolin-3-yl)methanone]
< 0.5 µM	1 to 10 µM	CCC(=O)N1CCN(C(=O)c2cnc3ccc(Cl)cc3c2N2CCC(C)(C#N)CC2)CC1 [Example 118, 1-(6-chloro-3-(4-propionylpiperazine-1-carbonyl)quinolin-4-yl)-4-methylpiperidine-4-carbonitrile]
< 0.5 µM	1 to 10 µM	CS(=O)(=O)N1CCN(C(=O)c2cnc3ccc(F)cc3c2-c2ccc(CC#N)cc2)CC1 [Example 212, 2-(4-(6-fluoro-3-(4-(methylsulfonyl)piperazine-1-carbonyl)quinolin-4-yl)phenyl)acetonitrile]
< 0.5 µM	1 to 10 µM	O=C(c1cnc2ccc(F)cc2c1N1CCC2(CCOC2=O)CC1)N1CCN(C(=O)C2CC2)CC1 [Example 248, 8-(3-(4-(cyclopropanecarbonyl)piperazine-1-carbonyl)-6-fluoroquinolin-4-yl)-2-oxa-8-azaspiro[4.5]decan-1-one]
< 0.5 µM	1 to 10 µM	CCC(=O)N1CCN(C(=O)c2cnc3ccc(OC)cc3c2N2CCC3(CC2)OCCO3)CC1 [Example 6, 1-(4-(6-methoxy-4-(1,4-dioxa-8-azaspiro[4.5]decan-8-yl)quinoline-3-carbonyl)piperazin-1-yl)propan-1-one, TFA]
< 0.5 µM	1 to 10 µM	COc1c(F)cc2c(N3CCC4(CC3)OCCO4)c(C(=O)N3CCN(S(C)(=O)=O)CC3)cnc2c1F [Example 133, (6,8-difluoro-7-methoxy-4-(1,4-dioxa-8-azaspiro[4.5]decan-8-yl)quinolin-3-yl)(4-(methylsulfonyl)piperazin-1-yl)methanone]
< 0.5 µM	0.5 to 1 µM	COc1c(F)cc2c(N3CCC(C)(C#N)CC3)c(C(=O)N3CCN(S(C)(=O)=O)CC3)cnc2c1F [Example 137, 1-(6,8-difluoro-7-methoxy-3-(4-(methylsulfonyl)piperazine-1-carbonyl)quinolin-4-yl)-4-methylpiperidine-4-carbonitrile]
1 to 10 µM	> 10 µM	C[C@@H]1CN(C(=O)c2cnc3ccc(F)cc3c2N2CCC(C)(C#N)CC2)CCN1C(=O)C1CC1 [Example 224, (R)-1-(3-(4-(cyclopropanecareonyl)-3-methylpiperazine-1-carbonyl)-6-fluoroquinolin-4-yl)-4-methylpiperidine-4-carbonitrile]
< 0.5 µM	< 0.5 µM	CC(=O)C1(c2ccccc2)CCN(c2c(C(=O)N3CCN(S(=O)(=O)N(C)C)CC3)cnc3ccc(F)cc23)CC1 [Example 268, 4-(4-(4-acetyl-4-phenylpiperidin-1-yl)-6-fluoroquinoline-3-carbonyl)-N,N-dimethylpiperazine-1-sulfonamide]
1 to 10 µM	> 10 µM	N#CC1(c2ccc(-c3c(C(=O)N4CC(O)C4)cnc4ccc(F)cc34)cc2)CC1 [Cpd. 334, 1-(4-(6-fluoro-3-(3-hydroxyazetidine-1-carbonyl)quinolin-4-yl)phenyl)cyclopropane-1-carbonitrile]
< 0.5 µM	1 to 10 µM	CCNC(=O)N1CCN(C(=O)c2cnc3ccc(Cl)cc3c2N2CCC(C)(C#N)CC2)CC1 [Example 121, 4-(6-chloro-4-(4-cyano-4-methylpiperidin-1-yl)quinoline-3-carbonyl)-N-ethylpiperazine-1-carboxamide]
